Experiment [1] relates to Meriones unguiculatus. The experiment in a line: Compound was evaluated for percentage clearance of Haemonchus contortus from jirds at the dose of 68 mg/kg. It counts as functional.
The subject of experiment [2] is Meriones unguiculatus. Nature of the experiment: Compound was evaluated for percentage clearance of Haemonchus contortus from jirds at dose of 25 mg/kg. In kind it is functional.

In the experiment on Meriones unguiculatus [1], `O=C(Nc1ccc(Br)cc1)C1=C(O)[C@@H]2[C@H](C1=O)[C@@H]1C=C[C@H]2C1` showed a Parasite_Clearance of 98%. In the experiment with Meriones unguiculatus [1], `Cc1cc(O)c(C(=O)Nc2ccc(Br)cc2)c(=O)o1` came in with a Parasite_Clearance of 76%. `O=C(Nc1ccc(Br)cc1)c1c(O)c2cccnc2oc1=O` had a Parasite_Clearance in the experiment with Meriones unguiculatus [1] of 100%.

`O=C(Nc1ccc(Br)cc1)c1c(O)c2ccccc2oc1=O`: the Parasite_Clearance with Meriones unguiculatus [1] came out at 89%. The same measure, in the same setting: under `O=C(Nc1ccc(Br)cc1)C1=C(O)C2C3C=CC(O3)C2C1=O` (stereo not given) stands 92%; under `O=C(Nc1ccc(Br)cc1)c1c(O)nc2sc(C(F)(F)F)nn2c1=O`, 82%; under `O=C(Nc1ccc(Br)cc1)C1=C(O)c2ccccc2C1=O`, 100%. The same measure, in the same setting: the figure for `Cn1c(=O)c(C(=O)Nc2ccc(Br)cc2)c(O)c2ccccc21` is 81%. On to `CN1C(=O)C(=C(O)Nc2ccc(Br)cc2)C(=O)N(C)C1=O`, for which the figures for the Parasite_Clearance in the experiment on Meriones unguiculatus [2] and with Meriones unguiculatus [1] were 81% and 100%, respectively.

Source of the values: ChEMBL document CHEMBL1130685, “Anthelmintic beta-hydroxyketoamides (BKAs)” (1998).
